The subject of data set [1] is epithelial cells in vitro ALI culture. To be noted: cited from earlier work.
For data set [2], the system named is barrier integrity in the lungs of mice under sulphur dioxide insult. The experiment in a line: Barrier integrity enhancement in the lung: HSA leakage into BAL after sulphur dioxide insult. It counts as in vivo. As to the method:
The effect of compounds of the invention on maintenance of barrier integrity in the lungs of mice under sulphur dioxide insult was investigated.
1. 15 female mice were randomised into 3 groups of 5 mice. The three groups were: • a) Control group • b) Azithromycin treatment group • c) Investigational compound treatment group
2. The mice were pre-treated for three days with: • a) Placebo (Phosphate buffered saline—PBS) given at a dose of 10 mg/kg in an intravenous injection of 100 μl three times per week. • b) Azithromycin: given at a dose of 10 mg/kg in an intravenous injection of 100 μl three times per week. • c) The compound of Example 2: given at a dose of 10 mg/kg in an intravenous injection of 100 μl three times per week.
3. One mouse in each group was set to one side as a control. Four mice were then exposed to sulphur dioxide gas at a concentration of 200 ppm in air for a period of 60 minutes. The mice were in a cage that was inserted into a 45 L treatment box with a removable lid, a gas feed line and a gas exhaust vent. […] The gas was premixed from bottled air and bottled 200 ppm SO2 in a first box and then fed into the treatment box. The level of SO2 being fed into the treatment box can be varied by adjusting the relative flow of air and SO2 from the two source cylinders. As the sulphur dioxide concentration in this experiment was 200 ppm, it was used neat, with no additional air being mixed with it. The mice had access to food and water for the duration of the treatment.
4. 24 hours after the end of the treatment, 1 mg of human serum albumin (HSA) in 100 μl saline was injected into the tail vein of each mouse, and fluorescent dextrans (FDs) were injected into the airways. The mice were then kept sedated for 90 minutes.
5. After 90 minutes, the mice were sacrificed via exsanguination. Plasma and bronchoalveolar lavage (BAL) were collected and the lungs were processed for paraffin embedding.
6. The level of HSA in the BAL was quantified by ELISA. The ELISA test used was the one commercially available from abcam (Human Serum Albumin kit ab179887). In line with the kit manufacturer's instructions, absorbance at […] was measured. Fluorescent dextrans are quantified using a fluorescent plate reader.
The level of HSA that leaks into the lungs, as found in the BAL, is a measure of the integrity of the lung epithelial barrier.
In the placebo group, there were experimental difficulties with two of the four mice; in the Azithromycin group, there were experimental difficulties with one of the four mice; and in the investigational compound group, there were experimental difficulties with two of the four mice. Therefore, results were obtained from two mice in each of the placebo and investigational compound groups, and from three mice in the Azithromycin group.

Data set [3] can be described thus: Solubility in 10 mM phosphate buffer (pH 7.4). It counts as physicochemical. To be noted: pH 7.4, aqueous buffer, kinetic from dmso stock, 60 minutes at room temperature, filtered, read-out: MTS Solubility in Buffer (pH 7.4). On the procedure:
Solubility in 10 mM Phosphate Buffer (pH 7.4)
The solubility sample testing of the compounds was performed by in phosphate buffer at pH 7.4 and using HPLC-MS detection. A stock solution of […] in DMSO was prepared for each compound. For the solubility test sample, 100 μL of the stock solution was diluted with 3.9 mL of a 10 mM phosphate buffer at […] to a final concentration of […]. The buffer solution was left to stand for 60 minutes at room temperature and then filtered. The filtrate was analyzed against two calibration points of the same analyte prepared at […] using HPLC-MS. These calibration points were prepared from the same stock solution as the solubility sample by diluting it with DMSO:H2O (1:1) 1:40 and then again 1:10. The chromatographic signal area of the analyte in the solubility sample was then compared to the chromatographic signal area of the two calibration samples.
(§1) The chromatographic separation was performed on a Waters HPLC-MS system using a 50×2.1 mm×Bridge C18 column and a gradient elution of Water with 0.1% formic acid and acetonitrile with 0.1% formic acid. The analytes were analyzed in positive electro-spray mode using the (M+H)^+ in single ion recording.

Data set [4] can be described thus: Stability in human plasma. It counts as in vitro ADME. To be noted: room temperature. As to the method: Stability in Mouse and Human Plasma
The stability of the compounds in mouse and human plasma was performed using protein precipitation as sample clean-up and HPLC-MS detection. The plasma stability studies of the compounds was performed at room temperature for up to 4 hours. A stock solution of […] in DMSO was prepared for each compound. For the plasma stability samples, 100 μL of the stock solution was diluted with 3.9 mL of either mouse or human plasma to a final concentration of […]. The plasma was left to equilibrate for 10 minutes at room temperature before the first analysis. For each analyzed time point ([…]) a 100 μL aliquot of the plasma was removed and protein precipitation (PPT) was performed on the aliquot by adding 900 μL of (ACN:DMSO) 95:5. The precipitated sample was shaken for 60 seconds and then centrifuged. The supernatant was transferred to an HPLC vial and analyzed using HPLC-MS. The chromatographic signal area of the samples at the different time points were then compared against each other, by setting the initial analysis at t=0 min as 100% and then calculating the %-value for each subsequent time point.
as §1

For data set [5], the system named is Mycobacterium avium complex (MAC). The experiment in a line: Assay 2: STC colorimetric microplate assay, comparison over the Mycobacteria studied. It counts as cell-based. Particulars: all four strains of M. avium and M. intracellulare.

These results are taken from patent US11236120B2, “Azithromycin derivatives with epithelial barrier enhancement properties” (EpiEndo Pharmaceuticals ehf, priority 2015, dated 2022).

≈ marks a conversion by molar mass, not a printed value. Entries after “also recorded” stand apart in the source; their conditions may differ.

Take penicillin: the “effect on transepithelial resistance (TER) and cellular processing of tight junctions” value in data set [1] is reported as “not to exhibit similar effects”.
For orientation: solubility means the dissolved amount per volume that the medium holds. `CC[C@H]1OC(=O)[C@H](C)[C@@H](O)[C@H](C)[C@@H](O[C@@H]2O[C@H](C)C[C@H](N(C)C)[C@H]2OC(=O)c2ccccc2)[C@](C)(O)C[C@@H](C)CN(C)[C@H](C)[C@@H](O)[C@]1(C)O` [Example 2]: the “HSA level - absorbance at 600 nm” value in data set [2] (HSA in BAL by ELISA, mice, 10 mg/kg intravenous, 200 ppm SO2 for 60 minutes) was found to be 0.373 ± 0.037. The “leakage of HSA into the lung following SO2 insult” value in data set [2] (compared with control, FIG. 1) is on record as “reduced compared with the control; also recorded: reduced compared with a control”. Moreover, the “HSA level - absorbance at 600 nm relative to control” value in data set [2] (relative to PBS control, mice, 10 mg/kg intravenous, 200 ppm SO2 for 60 minutes) is recorded as 0.640 ± 0.058. Further, the solubility at 60 min in data set [3] came out at 3.62 µM (≈ 2.52 µg/mL). Moreover, the “Degradation in Human Plasma at RT” value in data set [4] is “Stable”.
As to `CC[C@H]1OC(=O)[C@H](C)[C@@H](O[C@H]2C[C@@](C)(OC)[C@@H](O)[C@H](C)O2)[C@H](C)[C@@H](O[C@@H]2O[C@H](C)C[C@H](N(C)C)[C@H]2O)[C@](C)(OC)C[C@@H](C)C(=O)[C@H](C)[C@@H](O)[C@]1(C)O` [Clarithromycin], the “sensitivity of the MAC strains used” value in data set [5] is “sensitive”.
With `CC[C@H]1OC(=O)[C@H](C)[C@@H](O[C@H]2C[C@@](C)(OC)[C@@H](O)[C@H](C)O2)[C@H](C)[C@@H](O[C@@H]2O[C@H](C)C[C@H](N(C)C)[C@H]2O)[C@](C)(O)C[C@@H](C)C(=O)[C@H](C)[C@@H](O)[C@]1(C)O` [Erythromycin], in data set [1], the “effect on transepithelial resistance (TER) and cellular processing of tight junctions” value is reported as “not to exhibit similar effects”.
